Test results as given in the supplement of paper PMC10307832.

Columns and labels:
Assay in all cases: relative viability (nuclei count vs DMSO), 5 days (fraction); higher = more cells survive
NCI-H1755 = test system: NCI-H1755
Outline: (§1)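 Each reported value is a median over duplicate plates. It expresses relative viability: treated-well nuclei count divided by vehicle-well nuclei count. Lung cancer cell lines in 1536-well plates were dosed by pin tool a day after seeding, alone with one drug or with a fixed anchor-drug dose plus five library-drug doses (not always all listed) in √10 steps, and nuclei were counted after 5 days.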

COR-L23 = test system: COR-L23
Outline: as §1

SK-LU-1 = test system: SK-LU-1
Outline: as §1

NCI-H322M = test system: NCI-H322M
Outline: as §1

NCI-H1651 = test system: NCI-H1651
Outline: as §1

NCI-H460 = test system: NCI-H460
Outline: as §1

NCI-H522 = test system: NCI-H522
Outline: as §1

NCI-H1793 = test system: NCI-H1793
Outline: as §1

NCI-H358 = test system: NCI-H358
Outline: as §1

NCI-H3122 = test system: NCI-H3122
Outline: as §1

NCI-H2087 = test system: NCI-H2087
Outline: as §1

NCI-H596 = test system: NCI-H596
Outline: as §1

201T = test system: 201T
Outline: as §1

NCI-H1650 = test system: NCI-H1650
Outline: as §1

NCI-H23 = test system: NCI-H23
Outline: as §1

NCI-H2085 = test system: NCI-H2085
Outline: as §1

HCC-78 = test system: HCC-78
Outline: as §1

LU99A = test system: LU99A
Outline: as §1

H3255 = test system: H3255
Outline: as §1

HARA = test system: HARA
Outline: as §1

PC-3 [JPC-3] = test system: PC-3 [JPC-3]
Outline: as §1

NCI-H650 = test system: NCI-H650
Outline: as §1

HCC-366 = test system: HCC-366
Outline: as §1

Structure (SMILES): CN1CCN(CCOc2cc(OC3CCOCC3)c3c(Nc4c(Cl)ccc5c4OCO5)ncnc3c2)CC1 [Saracatinib] + O=C(c1cc(Cc2n[nH]c(=O)c3ccccc23)ccc1F)N1CCN(C(=O)C2CC2)CC1 [Olaparib] (partner 8 µM)
- relative viability (NCI-H1755; first compound 0.02 µM): 0.876
- relative viability (NCI-H1755; first compound 0.2 µM): 0.751
- relative viability (NCI-H1755; first compound 0.6325 µM): 0.872
- relative viability (NCI-H1755; first compound 2 µM): 0.786
- relative viability (COR-L23; first compound 0.02 µM): 0.447
- relative viability (COR-L23; first compound 0.2 µM): 0.319
- relative viability (COR-L23; first compound 0.6325 µM): 0.346
- relative viability (COR-L23; first compound 2 µM): 0.312
- relative viability (SK-LU-1; first compound 0.02 µM): 0.416
- relative viability (SK-LU-1; first compound 0.2 µM): 0.359
- relative viability (SK-LU-1; first compound 0.6325 µM): 0.33
- relative viability (SK-LU-1; first compound 2 µM): 0.28
- relative viability (NCI-H322M; first compound 0.02 µM): 0.769
- relative viability (NCI-H322M; first compound 0.2 µM): 0.492
- relative viability (NCI-H322M; first compound 0.6325 µM): 0.636
- relative viability (NCI-H322M; first compound 2 µM): 0.402
- relative viability (NCI-H1651; first compound 0.02 µM): 0.191
- relative viability (NCI-H1651; first compound 0.2 µM): 0.16
- relative viability (NCI-H1651; first compound 0.6325 µM): 0.162
- relative viability (NCI-H1651; first compound 2 µM): 0.165
- relative viability (NCI-H460; first compound 0.02 µM): 0.416
- relative viability (NCI-H460; first compound 0.2 µM): 0.285
- relative viability (NCI-H460; first compound 0.6325 µM): 0.423
- relative viability (NCI-H460; first compound 2 µM): 0.409
- relative viability (NCI-H522; first compound 0.02 µM): 0.679
- relative viability (NCI-H522; first compound 0.2 µM): 0.59
- relative viability (NCI-H522; first compound 0.6325 µM): 0.572
- relative viability (NCI-H522; first compound 2 µM): 0.534
- relative viability (NCI-H1793; first compound 0.02 µM): 0.872
- relative viability (NCI-H1793; first compound 0.2 µM): 0.498
- relative viability (NCI-H1793; first compound 0.6325 µM): 0.777
- relative viability (NCI-H1793; first compound 2 µM): 0.564
- relative viability (NCI-H358; first compound 0.02 µM): 0.527
- relative viability (NCI-H358; first compound 0.2 µM): 0.529
- relative viability (NCI-H358; first compound 0.6325 µM): 0.272
- relative viability (NCI-H358; first compound 2 µM): 0.324
- relative viability (NCI-H3122; first compound 0.02 µM): 0.62
- relative viability (NCI-H3122; first compound 0.2 µM): 0.485
- relative viability (NCI-H3122; first compound 0.6325 µM): 0.682
- relative viability (NCI-H3122; first compound 2 µM): 0.528
- relative viability (NCI-H2087; first compound 0.02 µM): 0.485
- relative viability (NCI-H2087; first compound 0.2 µM): 0.449
- relative viability (NCI-H2087; first compound 0.6325 µM): 0.552
- relative viability (NCI-H2087; first compound 2 µM): 0.515
- relative viability (NCI-H596; first compound 0.02 µM): 0.727
- relative viability (NCI-H596; first compound 0.2 µM): 0.589
- relative viability (NCI-H596; first compound 0.6325 µM): 0.684
- relative viability (NCI-H596; first compound 2 µM): 0.546
- relative viability (201T; first compound 0.02 µM): 0.913
- relative viability (201T; first compound 0.2 µM): 0.595
- relative viability (201T; first compound 0.6325 µM): 0.775
- relative viability (201T; first compound 2 µM): 0.665
- relative viability (NCI-H1650; first compound 0.02 µM): 0.784
- relative viability (NCI-H1650; first compound 0.2 µM): 0.636
- relative viability (NCI-H1650; first compound 0.6325 µM): 0.624
- relative viability (NCI-H1650; first compound 2 µM): 0.569
- relative viability (NCI-H23; first compound 0.02 µM): 0.386
- relative viability (NCI-H23; first compound 0.6325 µM): 0.391
- relative viability (NCI-H23; first compound 2 µM): 0.23
- relative viability (NCI-H2085; first compound 0.02 µM): 0.802
- relative viability (NCI-H2085; first compound 0.2 µM): 0.602
- relative viability (NCI-H2085; first compound 0.6325 µM): 0.821
- relative viability (NCI-H2085; first compound 2 µM): 0.863
- relative viability (HCC-78; first compound 0.02 µM): 0.891
- relative viability (HCC-78; first compound 0.6325 µM): 0.99
- relative viability (HCC-78; first compound 2 µM): 0.673
- relative viability (LU99A; first compound 0.02 µM): 0.278
- relative viability (LU99A; first compound 0.2 µM): 0.194
- relative viability (LU99A; first compound 0.6325 µM): 0.282
- relative viability (LU99A; first compound 2 µM): 0.256
- relative viability (H3255; first compound 0.02 µM): 0.623
- relative viability (H3255; first compound 0.2 µM): 0.496
- relative viability (H3255; first compound 0.6325 µM): 0.593
- relative viability (H3255; first compound 2 µM): 0.301
- relative viability (HARA; first compound 0.02 µM): 0.891
- relative viability (HARA; first compound 0.2 µM): 0.631
- relative viability (HARA; first compound 0.6325 µM): 0.878
- relative viability (HARA; first compound 2 µM): 0.311
- relative viability (PC-3 [JPC-3]; first compound 0.02 µM): 1.19
- relative viability (PC-3 [JPC-3]; first compound 0.2 µM): 0.993
- relative viability (PC-3 [JPC-3]; first compound 0.6325 µM): 0.746
- relative viability (PC-3 [JPC-3]; first compound 2 µM): 0.55
- relative viability (NCI-H650; first compound 0.02 µM): 0.353
- relative viability (NCI-H650; first compound 0.2 µM): 0.442
- relative viability (NCI-H650; first compound 0.6325 µM): 0.429
- relative viability (NCI-H650; first compound 2 µM): 0.432
- relative viability (HCC-366; first compound 0.02 µM): 0.343
- relative viability (HCC-366; first compound 0.2 µM): 0.0912
- relative viability (HCC-366; first compound 0.6325 µM): 0.264
- relative viability (HCC-366; first compound 2 µM): 0.199
